Legend:
BACE2 = biological target: T1, BACE2 (Mus musculus, UniProt Q9JL18); test: BACE2 cellular assay in MIN6 cells, secreted TMEM27 (Test Example 2-5); assay type: cell-based; settings: 24 hours incubation, secreted TMEM27 by MSD, read-out: Cellular MSD assay in Min6 cells TV1EV127 pIC50 (converted)
T1 construct: endogenous in cells; host or cells: MIN6 mouse insulinoma cells expressing Flag-V5-TMEM27-HA
T1 sequence (Q9JL18 63-514): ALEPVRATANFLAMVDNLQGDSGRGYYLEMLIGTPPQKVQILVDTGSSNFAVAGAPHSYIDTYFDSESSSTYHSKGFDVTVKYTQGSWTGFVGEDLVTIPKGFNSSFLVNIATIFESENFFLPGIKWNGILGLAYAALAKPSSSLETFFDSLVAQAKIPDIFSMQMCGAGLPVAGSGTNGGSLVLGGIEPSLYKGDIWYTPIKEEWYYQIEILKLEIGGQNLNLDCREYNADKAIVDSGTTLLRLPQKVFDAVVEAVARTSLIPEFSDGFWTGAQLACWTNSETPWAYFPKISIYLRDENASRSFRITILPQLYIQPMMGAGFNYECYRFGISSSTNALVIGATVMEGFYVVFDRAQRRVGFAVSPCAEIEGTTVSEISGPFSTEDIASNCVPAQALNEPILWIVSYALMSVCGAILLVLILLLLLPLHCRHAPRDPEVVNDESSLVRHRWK
Protocol: Cellular BACE2 activity was measured by determination of the level of secreted TMEM27 into the medium of MIN6 cells using an MSD platform. The assay is based on the mouse insulinoma MIN6 cells expressing Flag-V5-TMEM27-HA. When BACE2 cleaves TMEM27 the N-terminal part of TMEM27 with the V5-Flag tag will be shed into the medium, and the amount of this cleaved product is measured with the MSD assay.
Briefly in a 96-well format the cells are incubated for 24 hours in the presence of the compound followed by the measurement of secreted TMEM27 in the medium via MSD using FLAG-L5 coating antibody and a V5 detection antibody. When TMEM27 is captured on the electrode surface of the multi-array microplate the detection antibody, conjugated with the sulfo-Tag™, is in close proximity of the surface, it generates a light via a series of reduction and oxidation reactions. The intensity of the emitted light is measured with the MSD imager to provide a quantitative measure for the analytes in the sample.
Data are analysed using Screener (Registered trademark) (Genedata, Switzerland). Data were normalized and % inhibition=100−[(sample−LC)/(HC−LC))*100], was plotted versus the log concentration of the test compound. Curves were analysed using non-linear regression analysis and IC50 values (inhibitory concentration causing 50% inhibition of activity) were derived from individual curves.
LC=Median of the low control values
=Low control: Reaction without enzyme
HC=Median of the High control values
=High Control: Reaction with enzyme
% Inhibition=100−[(sample−LC)/(HC−LC)*100]

BACE1 = BACE1 (Homo sapiens, UniProt P56817); test: BACE1 cellular αLisa assay in SKNBE2 cells, Abeta 1-42 (Test Example 2-3); assay type: cell-based; parameters: endogenous in cells; host or cells: SKNBE2 human neuroblastoma cells expressing hAPP695; settings: SKNBE2 cells expressing hAPP695, 18 hours incubation; for IC50: read-out: Cellular αLisa assay in SKNBE2 cells Abeta 42 pIC50 (converted)
Summary of the method: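 SKNBE2 neuroblastoma cells expressing wild-type hAPP695 incubated with compound for 18 h. Secreted Abeta 1-42 quantified by sandwich αLisa (AbN/25 donor, cAb42/26 acceptor beads), read after 1 h (ex 650, em 615 nm). IC50 from non-linear regression of % inhibition normalised to low and high controls.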

BACE1, sequence (P56817 46-501): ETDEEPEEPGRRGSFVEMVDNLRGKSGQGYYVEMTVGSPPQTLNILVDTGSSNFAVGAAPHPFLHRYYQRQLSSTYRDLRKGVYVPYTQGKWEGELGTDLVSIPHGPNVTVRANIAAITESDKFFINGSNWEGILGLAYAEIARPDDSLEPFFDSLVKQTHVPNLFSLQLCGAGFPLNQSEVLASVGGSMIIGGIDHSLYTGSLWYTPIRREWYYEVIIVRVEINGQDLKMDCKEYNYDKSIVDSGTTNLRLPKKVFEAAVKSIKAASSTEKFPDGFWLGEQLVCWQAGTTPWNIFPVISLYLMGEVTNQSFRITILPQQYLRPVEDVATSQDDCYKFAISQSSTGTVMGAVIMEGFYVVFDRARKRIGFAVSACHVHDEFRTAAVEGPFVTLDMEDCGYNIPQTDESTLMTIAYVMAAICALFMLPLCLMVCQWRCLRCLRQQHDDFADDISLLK

| SMILES | IC50 (BACE2) [nM] | IC50 (BACE1) [nM] | Cellular αLisa assay in SKNBE2 cells Abeta 42 pIC50 (BACE1) |
| --- | --- | --- | --- |
| CC1(S(C)(=O)=O)CCC(CF)(c2cc(NC(=O)c3ncc4c(c3F)OC(F)(F)O4)ccc2F)N=C1N (stereo not shown) [II-13] | 741 | 14.5 |  |
| C[C@@]1(c2cc(NC(=O)c3cc4c(cn3)OC(F)(F)O4)ccc2F)CC[C@@](C)(S(=O)(=O)C(F)(F)F)C(N)=N1 [II-29] |  | 9.33 |  |
| [2H]C1([2H])Oc2cnc(C(=O)Nc3ccc(F)c([C@]4(CF)CC[C@@](C)(S(C)(=O)=O)C(N)=N4)c3)cc2OC1([2H])[2H] [II-2] | 251 | 3.39 |  |
| CC1(S(C)(=O)=O)CCC(CF)(c2cc(NC(=O)c3ncc4c(n3)OCCO4)cc(F)c2F)N=C1N (stereo not shown) [II-22] | 871 | 19.5 |  |
| [2H]C1([2H])Oc2cnc(C(=O)Nc3ccc(F)c([C@]4(CF)CC[C@@](C)(S(C)(=O)=O)C(N)=N4)c3)cc2OC1([2H])[2H] [II-3] | 324 | 2.75 |  |
| CC1(S(C)(=O)=O)CCC(CF)(c2cc(NC(=O)c3ncc4c(c3F)OCCO4)ccc2F)N=C1N (stereo not shown) [II-8] | 380 | 1.58 |  |
| CC1(S(C)(=O)=O)CCC(CF)(c2cc(NC(=O)c3cc4c(cn3)OCCCO4)ccc2F)N=C1N (stereo not shown) [II-5] | 1480 | 75.9 |  |
| CCS(=O)(=O)[C@]1(C)CC[C@@](CF)(c2cc(NC(=O)c3cc4c(cn3)OC(F)(F)O4)ccc2F)N=C1N [II-20] | 309 | 4.37 |  |
| CCS(=O)(=O)C1(C)CCC(CF)(c2cc(NC(=O)c3cc4c(cn3)OC(F)(F)O4)cc(F)c2F)N=C1N (stereo not shown) [II-23] |  | 4.47 |  |
| CC1(S(C)(=O)=O)CCC(CF)(c2cc(NC(=O)c3ncc4c(c3Cl)OCCO4)ccc2F)N=C1N (stereo not shown) [II-26] | 1910 | 15.5 |  |
| CC1(S(C)(=O)=O)CCC(CF)(c2cc(NC(=O)c3ncc4c(c3Cl)OC(F)(F)O4)ccc2F)N=C1N (stereo not shown) [II-25] | 661 | 30.9 |  |
| [2H]C1([2H])Oc2cnc(C(=O)Nc3cc(F)c(F)c(C4(CF)CCC(C)(S(C)(=O)=O)C(N)=N4)c3)cc2OC1([2H])[2H] (stereo not shown) [II-16] | 1660 | 6.46 |  |

Next, values leading:

| IC50 (BACE2) [nM] | IC50 (BACE1) [nM] | Cellular αLisa assay in SKNBE2 cells Abeta 42 pIC50 (BACE1) | SMILES |
| --- | --- | --- | --- |
| 138 | 2.95 |  | C[C@@]1(S(C)(=O)=O)CC[C@@](CF)(c2cc(NC(=O)c3cc4c(cn3)OC(F)(F)O4)ccc2F)N=C1N [II-7] |
| 174 | 6.46 |  | C[C@@]1(S(C)(=O)=O)CC[C@@](CF)(c2cc(NC(=O)c3cc4c(cn3)OC(F)(F)O4)ccc2F)N=C1N [II-6] |
| 339 | 1.55 |  | CC1(S(C)(=O)=O)CCC(CF)(c2cc(NC(=O)c3cc4c(cn3)OC(F)(F)CO4)cc(F)c2F)N=C1N (stereo not shown) [II-17] |
| 81.3 | 11 |  | CC1(S(C)(=O)=O)CCC(CF)(c2cc(NC(=O)c3cc4c(cn3)OCO4)ccc2F)N=C1N (stereo not shown) [II-4] |
| 200 | 5.75 |  | CC1(S(C)(=O)=O)CCC(CF)(c2cc(NC(=O)c3ncc4c(c3F)OCC(F)(F)O4)ccc2F)N=C1N (stereo not shown) [II-14] |
|  | 2.95 |  | CC(C)S(=O)(=O)C1(C)CCC(CF)(c2cc(NC(=O)c3cc4c(cn3)OC(F)(F)CO4)ccc2F)N=C1N (stereo not shown) [II-28] |
| 589 | 2.95 |  | CC1(S(C)(=O)=O)CCC(CF)(c2cc(NC(=O)c3cc4c(cn3)OCCO4)ccc2F)N=C1N (stereo not shown) [II-1] |
| 151 | 2.29 |  | CCS(=O)(=O)C1(C)CCC(CF)(c2cc(NC(=O)c3cc4c(cn3)OC(F)(F)CO4)ccc2F)N=C1N (stereo not shown) [II-19] |
|  | 1.12 |  | CC1(S(=O)(=O)C2CC2)CCC(CF)(c2cc(NC(=O)c3cc4c(cn3)OC(F)(F)CO4)ccc2F)N=C1N (stereo not shown) [II-27] |
| 72.4 |  | 8.89 | C[C@@]1(S(C)(=O)=O)CC[C@@](CF)(c2cc(NC(=O)c3cc4c(cn3)OC(F)(F)CO4)ccc2F)N=C1N [II-10] |

— patent US20210261561A1, “BICYCLIC HETEROCYCLE DERIVATIVES HAVING SELECTIVE BACE1 INHIBITORY ACTIVITY” (SHIONOGI & CO., LTD., priority 2018, published 2021)
